Laboratory results: PubChem BioAssay AID2305 (GlaxoSmithKline (GSK), 2010)

tested on: P. falciparum 3D7 growth, pLDH absorbance; assay: P. falciparum 3D7 growth inhibition, dose response, strain 3D7 (AID 2305)

Row | SMILES | IC50 [µM]
1 | COc1ccc(C=Cc2cc(N)c3ccccc3n2)cc1 | 0.97
2 | O=C(O)CCc1ccc(-c2c[nH]c3ncc(-c4ccc5ncccc5c4)cc23)cc1 | 0.3
3 | O=C(Nc1ccc([N+](=O)[O-])cc1Br)c1cc2ccccc2nc1Cl | 0.19
4 | CN(C)Cc1cccc(-c2ccc(Nc3nccc(NCC(O)c4ccccc4)n3)cc2)c1 (configuration not stated) | 0.14
5 | CCN(CC)CCN(Cc1ccc(-c2ccc(C(F)(F)F)cc2)cc1)C(=O)Cn1c(CCc2cc(F)c(F)c(F)c2)nc(=O)c2ccccc21 | 0.83
6 | O=c1cc(NCCCNC2CCOc3c(I)cc(Cl)cc32)[nH]c2ccccc12 (configuration not stated) | 0.83
7 | CCNc1cc(C(=O)N[C@@H](Cc2ccccc2)[C@H](O)CNC2CCC(C)(C)C2)cc(N2CCCCS2(=O)=O)c1 (some centres not stated) | 0.14
8 | Cc1cc(C2CCN(CCCCNC(=O)c3ccc(-c4ccc(C(F)(F)F)cc4)cc3)CC2)c(C)cc1OCCO | 0.88
9 | O[C@H](c1cc(C(F)(F)F)nc2c(C(F)(F)F)cccc12)[C@@H]1CCCCN1 | 0.07
10 | O=C(Nc1ccc2c(c1)CCC2)c1cnc(N2CCN(c3ccncc3)CC2)c(Cl)c1 | 1.11
11 | Cc1[nH]c2ccc(O)cc2c1C1CCN(CC2CCN(C(=O)/C=C/c3ccc(Cl)c(Cl)c3)CC2)CC1 | 1
12 | CN1CCN(S(=O)(=O)c2ccc3nccc(Nc4ccc(Oc5ccccc5)cc4)c3c2)CC1 | 0.82
13 | OC(CNc1ccnc(Nc2cccc(CCN3CCOCC3)c2)n1)c1ccccc1 (configuration not stated) | 0.59
14 | CN1CCCN(c2ccnc3cc4c(cc23)N(C(=O)c2ccc(C(F)(F)F)cc2)CC4)CC1 | 0.79
15 | Nc1ncc(-c2ccsc2)c2ccc(-c3ccc4cn[nH]c4c3)cc12 | 0.81
16 | CC1(C)C(=O)Nc2ccc3c(c21)CC1SC(=O)NN=C31 (configuration not stated) | 1.49
17 | Cc1c(CCC#N)c(NCc2ccccc2)n2c(nc3ccccc32)c1C#N | 0.88
18 | Cc1ccc(NC(=O)N2CCN(CCCCCNC(=O)/C=C/c3ccc(Cl)c(Cl)c3)CC2)cc1C | 1.1
19 | COC(=O)c1ccc(CC(C)NCC(O)c2ccccc2Cl)cc1 (configuration not stated) | 1.01

Row | SMILES | IC50 [µM]
20 | O=C(NCCN1CCCC1)c1cccc(-c2ccc(-c3nc4ccccc4[nH]3)cc2)c1 | 0.92
21 | c1ccc(CNCc2cccc(-c3cccc(-c4nc5ccccc5[nH]4)c3)c2)cc1 | 0.57
22 | COc1ccc(C(=O)Cn2nc(-c3ccc(Cl)cc3)ccc2=O)c(OC)c1 | 0.5
23 | Nc1nnc(-c2ccc(Cl)c(Br)c2)c(N)n1 | 1.04
24 | CCN(CC)CCN(Cc1ccc(-c2ccc(C(F)(F)F)cc2)cc1)C(=O)Cn1c(CCc2cccc(F)c2F)nc(=O)c2cc(F)c(F)cc21 | 0.83
25 | CC[C@H]1CN2CC[C@H]1C[C@H]2[C@H](O)c1ccnc2ccc(C#N)cc12 | 0.15
26 | Cc1ccc(S(=O)(=O)N2CCN(C(=O)c3cc(-c4cccs4)[nH]n3)CC2)c(C)c1 | 0.87
27 | COc1cc(CN2CCC(C(=O)Nc3ccc(-c4cccc(C)c4)cc3)CC2)ccc1O | 1.12
28 | COc1ccc2ncc(F)c(CCN3C[C@H](CNCc4cc(C#N)c5c(c4)OCCO5)[C@H](O)C3)c2n1 | 0.58
29 | CNCCN(C)C(=O)Oc1c(Br)c(C)nc(C)c1-c1ccc(Oc2ccc(OC(F)(F)F)cc2)cc1 | 0.11
30 | O=c1cc(NCCCNCc2cccc(OC(F)(F)C(F)F)c2)[nH]c2ccccc12 | 1.27
31 | C[C@@H]1CN(c2cnn(C/C=C/c3ccc(NC(=O)c4ccc(Cl)cc4)cc3)c(=O)c2Cl)C[C@H](C)N1 | 0.85
32 | CCN(CC)CCN(Cc1ccc(-c2ccc(C(F)(F)F)cc2)cc1)C(=O)Cn1cc(CCCCc2cccc(F)c2F)c(=O)c2ccccc21 | 0.88
33 | CCc1cc2c(Sc3nc4ccccc4[nH]3)ncnc2s1 | 0.82
34 | N#Cc1ccc2c(c1)CCN(CCC1CCC(NC(=O)Nc3ccncc3)CC1)C2 (configuration not stated) | 1.13
35 | CCN(CC)CCN(Cc1ccc(-c2ccc(C(F)(F)F)cc2)cc1)C(=O)Cn1c(CCc2cccc(F)c2F)cc(=O)cc1-c1ccccc1 | 0.78
36 | COc1ccc(Cl)cc1N1CCN(CCCNC(=O)c2ccc(-c3nc4ccncc4[nH]3)c(Br)c2)CC1 | 1.15
37 | CNS(=O)(=O)Cc1ccc(Nc2nccc(Nc3cccc4c3cnn4C(=O)Nc3ccccc3)n2)cc1 | 0.96
